Results on eight molecules are retold here after article PMC9834664, “Linking medicinal cannabis to autotaxin–lysophosphatidic acid signaling” (Life Science Alliance, 2023).

The target of data set [1] is T1, ATX-γ (Homo sapiens, UniProt Q13822).
T1 construct: made in house; host or cells: HEK293-Flp-In cells, protein purified from the culture medium
Nature of the data set: End-point choline release assay, relative inhibition by cannabinoids. In kind it is biochemical. As to conditions: 10 µM compound; for inhibition of ATX-γ catalysis: LPC 18:1 200 µM; for ANOVA comparison with CTRL, ATX-γ inhibition: significance threshold P 0.005. How it is done: (§1) We first set out to validate the hypothesis that cannabinoids might bind ATX to modulate its catalytic function. For this, we used various cannabinoids (Fig 1A) at a fixed concentration of 10 µM for each compound in our biochemical validation with LPC 18:1 (200 µM) as substrates in an end-point assay for ATX-β (UniProt ID: Q13822-1) and ATX-γ (UniProt ID: Q13822-3) (Fig 1B and C). […] In addition, we can exclude interference of the cannabinoid compounds in our enzymatically coupled assay, as no difference is detectable in the absence of ATX and LPC (Fig S1B), performed in the presence of choline.
(§2) ATX lysophospholipase D activity was measured using choline release from LPC 18:1 and LPC 16:0 with a choline quantification kit ([Hausmann et al, 2016]) (Fig S6D). 30 nM ATX-β or ATX-γ was incubated with 200 µM LPC 18:1 or LPC 16:0 in a final volume of 100 µl buffer, which contained 50 mM Tris–HCl (pH 8.5) and 150 mM NaCl. The LPC solution was obtained by evaporating a commercial LPC chloroform solution directly in a 1.5-ml Eppendorf tube under vacuum. The dried LPC was then resuspended in water to obtain the mentioned concentration and incubated at 37°C on a shaker for 5–10 min before addition to the microplate. The cannabinoid solutions were prepared from a stock solution in ethanol or other organic solvents. After initial evaporation and/or dilution to obtain the highest concentration mentioned in the assay figure, a twofold dilution was performed in Eppendorf tubes. All the compounds were dissolved in 100% ethanol as a vehicle.
(§3) The experiments for determining relative inhibition for various cannabinoids were performed at 37°C by adding 10 µM of the cannabinoid or endocannabinoid mentioned. Released choline was detected, and the enzyme activity was determined by measuring fluorescence at λex/λem = 540/590 nm in 96-well plates, every 60 s for 50 min minimum using a CLARIOstar plate reader (BMG Labtech). Absolute values were taken at 25 min after visual inspection, and the 0-min baselines were subtracted to account for compound differences. The relative inhibition values were determined using the normalize method in GraphPad Prism (GraphPad Software, Inc.). Measurements have been performed in triplicate with three different protein preparations. All the compounds were controlled for interference of fluorescence and inhibition in the same assay conditions but in the absence of ATX and replacing LPC with choline.

For data set [2], the target named is T2, ATX-β (Homo sapiens, UniProt Q13822).
T2 construct: made in house; host or cells: HEK293-Flp-In cells, protein purified from the culture medium
Described as above. In kind it is biochemical. As to conditions: 10 µM compound; for inhibition of ATX-β catalysis: LPC 18:1 200 µM; for ANOVA comparison with CTRL, ATX-β inhibition: significance threshold P 0.005. How it is done:
as §1, §2, §3

Data set [3] concerns the target CB1. As to conditions: cited from earlier work.
Data set [4] addresses CB2. To be noted: cited from earlier work.
The target in data set [5] is T1, ATX-γ. Nature of the data set: Dose–response choline release assay. In kind it is biochemical. To be noted: LPC 18:1. How it is done:
(§4) ATX lysophospholipase D activity was measured using choline release from LPC 18:1 and LPC 16:0 with a choline quantification kit ([Hausmann et al, 2016]). 30 nM ATX-β or ATX-γ was incubated with 200 µM LPC 18:1 or LPC 16:0 in a final volume of 100 µl buffer, which contained 50 mM Tris–HCl (pH 8.5) and 150 mM NaCl. The LPC solution was obtained by evaporating a commercial LPC chloroform solution directly in a 1.5-ml Eppendorf tube under vacuum. The dried LPC was then resuspended in water to obtain the mentioned concentration and incubated at 37°C on a shaker for 5–10 min before addition to the microplate.
(§5) The experiment for determining apparent EC50 for various cannabinoids was performed at 37°C by adding the cannabinoid in a serial twofold dilution for each concentration. The cannabinoid solutions were prepared from a stock solution in ethanol or other organic solvents. After initial evaporation and/or dilution to obtain the highest concentration mentioned in the assay figure, a twofold dilution was performed in Eppendorf tubes. All the compounds were dissolved in 100% ethanol as a vehicle. […] For CBN, 5-DMH-CBD, and CBD, the starting concentration was 50 µM, 150 µM, and 2 mM, respectively. Released choline was detected, and the enzyme activity was determined by measuring fluorescence at λex/λem = 540/590 nm in 96-well plates, every 60 s for 50 min minimum using a CLARIOstar plate reader (BMG Labtech). Initial velocities were taken between 19 and 31 min after visual inspection. The apparent EC50 values were determined using the non-linear regression analysis method (fit: [inhibitor] versus response [three parameter]) in GraphPad Prism (GraphPad Software, Inc.). However, it should be mentioned that the relative concentrations of the different lipids/inhibitors in their physical form as micelles, liposomes, protein-bound, or aggregates are unknown ([Carman et al, 1995]). These uncertainties are widely known, and we provide here an apparent EC50 for consideration. Measurements have been performed in triplicate with three different protein preparations. […]

Data set [6] addresses T2, ATX-β. The experiment in a line: Dose–response choline release assay. The format is biochemical. As to conditions: LPC 18:1. How it is done: as §4, §5
Data set [7] has as its system LPA1 receptor internalization in HA/LPA1-transfected HeLa cells. Nature of the data set: hLPA1 receptor internalization assay. In kind it is cell-based, human.
Data set [8] addresses T1, ATX-γ. Nature of the data set: Mode of inhibition analysis with increasing LPC 18:1. In kind it is biochemical. Also on record: Vmax: unit not given here.
For data set [9] the following is noted: no reference given; cited from earlier work.
For data set [10] the following is noted: ref Hunault et al, 2008, cited from earlier work.

“Also recorded” adds a separate entry of the source. A value given as a limit tells only on which side of the number the result lay.

In the case of `CCCCC/C=C\C/C=C\C/C=C\C/C=C\CCCC(=O)OC(CO)CO` [2-AG, 2-arachidonoylglycerol], in data set [1], the “inhibition of ATX-γ catalysis” value is reported as “did not affect the catalysis” and the “ANOVA comparison with CTRL, ATX-γ inhibition” value was “not significantly inhibited”. For the same molecule, in [2], the “inhibition of ATX-β catalysis” value is on record as “did not affect the catalysis” and the “ANOVA comparison with CTRL, ATX-β inhibition” value is listed as “not significantly inhibited”.

Regarding `CCCCCc1cc(O)c2c(c1)OC(C)(C)C1=C2C[C@H](C)CC1` [6a10aTHC, 9(R)-Δ6a,10a-THC], the “inhibition of ATX-γ catalysis” value in data set [1] is “further increase in the magnitude of inhibition”. Also, in data set [2], the “inhibition of ATX-β catalysis” value is “further increase in the magnitude of inhibition” and the “ANOVA comparison with CTRL, ATX-β inhibition” value is recorded as “statistically significant differences”.

Take `C=C(C)[C@@H]1CCC(C)=C[C@H]1c1c(O)cc(CCCCC)cc1O` [CBD, cannabidiol]: the “inhibition of ATX-γ catalysis” value in data set [1] was “no observable inhibition”. In [2], the “inhibition of ATX-β catalysis” value was “weak inhibition” and the “ANOVA comparison with CTRL, ATX-β inhibition” value is recorded as “statistically significant differences”.

On to `CCCCCn1cc(C(=O)c2cccc3ccccc23)c2ccccc21` [JWH018], for which, in data set [3] (CB1, ref Aung et al, 2000), the Ki was 9 ± 8 nM. In data set [4] (CB2, ref Aung et al, 2000), the Ki was 2.9 ± 2.7 nM. Further, in [1], the “inhibition of ATX-γ catalysis” value is reported as “did not influence the catalytic activity” and the “ANOVA comparison with CTRL, ATX-γ inhibition” value is “not significantly inhibited”. In data set [2], the “inhibition of ATX-β catalysis” value is on record as “did not influence the catalytic activity” and the “ANOVA comparison with CTRL, ATX-β inhibition” value is recorded as “not significantly inhibited”.

As for `CCCCCc1cc(O)c2c(c1)OC(C)(C)[C@@H]1CCC(C)=C[C@@H]21` [THC, Δ^9-trans-tetrahydrocannabinol], the type of inhibitor entry in data set [5] and in data set [6] was “partial inhibitor” in each case. Moreover, the “magnitude of inhibition (maximum inhibition)” value in [6] was “around 60%”. The “binding to CB1” value in [3] (ref Pertwee, 2008) was “low nanomolar regime”. Also, the LPA1 internalization entry in data set [7] (30 nM ATX, 150 µM LPC 18:1, 1 µM THC, paired t test P = 0.0008) is given as “significantly reduced LPA1 internalization; also recorded: reduced the number of endosomes internalized”; in data set [7] (LPA in the presence of THC) it was “LPA1 receptors were internalized”; in [7] (THC alone (1 µM)), “No internalization”. Besides, in [7] (higher LPC concentration, 400 µM LPC, P = 0.0068), the “inhibition of ATX-LPA signaling (LPA1 internalization)” value is recorded as “not abolished”. For the same molecule, the Vmax in [8] (0.35 µM THC (8.5 without THC)) is given as 7.3; in data set [8] (0.7 µM THC (8.5 without THC)), 6.3; in [8] (1.4 µM THC (8.5 without THC)) it was 5.0. In addition, the Km stood at 19.6 µM in data set [8] (0.35 µM THC (10.1 without THC)), 29.9 µM in data set [8] (0.7 µM THC (10.1 without THC)) and 31.5 µM in [8] (1.4 µM THC (10.1 without THC)). Besides, the mode of inhibition entry in [8] (ATX-γ, LPC 18:1) was “mixed-type inhibition; also recorded: mixed-type inhibitor”. In data set [9], the “bound to plasma proteins” value is given as 95–97%. Further, the “mean THC peak in serum” value in [10] (69.4-mg THC dose, SD = 106.8) is 190.4 ng/mL. Also, the “serum concentration of THC, lower end of range in molar units” value in [10] (after a 49.1-mg THC dose, equals 59 ng/ml) is 190 nM. In addition, the “serum concentration of THC, upper end of range in molar units” value in data set [10] (after a 49.1-mg THC dose, equals 421 ng/ml) is 1.3 µM. Further, the “binding to CB2” value in data set [4] (ref Pertwee, 2008) is recorded as “low nanomolar regime”. Also, the “inhibition of ATX-γ catalysis” value in data set [1] is reported as “more than 50%”. Also, in data set [2], the “inhibition of ATX-β catalysis” value was “more than 50%”. The “ANOVA comparison with CTRL, ATX-β inhibition” value in [2] was “statistically significant differences”.

With `CCCCCc1cc2c(c(O)c1C(=O)O)[C@@H]1C=C(C)CC[C@H]1C(C)(C)O2` [Tetrahydrocannabinolic acid, tetrahydrocannabinolic acid], in data set [1], the “inhibition of ATX-γ catalysis” value is recorded as less than 50%. For the same molecule, in data set [2], the “inhibition of ATX-β catalysis” value is reported as less than 50% and the “ANOVA comparison with CTRL, ATX-β inhibition” value is “statistically significant differences”.

For the molecule `CCCCC/C=C\C/C=C\C/C=C\C/C=C\CCCC(=O)NCCO` [anandamide], in data set [1], the “inhibition of ATX-γ catalysis” value was “did not affect the catalysis” and the “ANOVA comparison with CTRL, ATX-γ inhibition” value is reported as “not significantly inhibited”. In data set [2], the “inhibition of ATX-β catalysis” value was “did not affect the catalysis” and the “ANOVA comparison with CTRL, ATX-β inhibition” value was “not significantly inhibited”.

In the case of lysophosphatidic acid [LPA], the LPA1 internalization result in data set [7] (LPA treatment of cells (1 µM LPA 18:1)) is “high LPA1 receptor internalization”.

In general, Ki refers to a measure of affinity in units of concentration, obtained from inhibition or displacement. The term Km denotes the concentration of substrate that gives half-maximal velocity.
